# From US6043058A, “Preparation of cyclic depsipeptide compounds and a novel cyclic depsipeptide” (Maiji Seika Kaisha Ltd., priority 1996, dated 2000)
# How the values were obtained:
# [1] = Classification by basicity, acidity or neutrality; type: physicochemical
# Description: (§1) Physico-chemical properties of PF […] substance, PF […] substance and PF […] substance thus obtained are given below: […]
# [2] = Solubilities (physico-chemical properties); type: physicochemical
# Description: as §1
# [3] = system: fowl roundworms; experiment: Anthelmintic activity; type: in vivo; conditions: parasite not named at this place; stated in words only
structure (smiles),measurement,setting,value
CC(C)C[C@H]1C(=O)O[C@H](C)C(=O)N(C)[C@@H](CC(C)C)C(=O)O[C@H](C)C(=O)N(C)[C@@H](CC(C)C)C(=O)O[C@H](C)C(=O)N(C)[C@@H](CC(C)C)C(=O)O[C@H](C)C(=O)N1C [PF 1022F substance],"Classification by basicity, acidity or neutrality",[1],Neutral substance
same,Solubility in organic solvents,"[2]; chloroform, acetone, ethyl acetate, methanol and dimethylsulfoxide",Soluble
same,Solubility in n-hexane,[2]; solvent: n-hexane,Insoluble
same,Solubility in water,[2]; solvent: water,Insoluble
same,Anthelmintic activities (general statement),[3],having anthelmintic activities
